Common to all, as to format: physicochemical
A short description of series [1]: Stability of the active substance.
A short description of series [2]: Solubility in physiologically acceptable solvents.
The nature of series [3]: Hygroscopicity of the active substance.

Where a name gives a salt, the structure may show the parent alone.

`NC(N)=NC(=O)c1ccc(N2CCN(C(=O)c3ccc[nH]3)CC2)c(C(F)(F)F)c1` [formula 1, 4-[4-(2-pyrrolylcarbonyl)-1-piperazinyl]-3-trifluoromethylbenzoylguanidine hydrochloride]: the stability result in series [1] was “high degree of stability”. For the same molecule, the solubility result in series [2] was “dissolves readily”. Besides, the hygroscopicity result in series [3] is given as “not hygroscopic”.
